Data on nine compounds can be found in US20100063126A1, “Carbazole-Derived Pharmaceutical Compositions” (JadoLabs GmbH, priority 2004, published 2010).

Assay [1] deals with HIV-1 strain NL4-3. The assay is described as follows: microbe, parasite or virus in culture. Type of assay: cell-based. The following applies: Human immunodeficiency virus 1, NL43, HeLa TZM cells, compared to solvent, read-out: inhibition of HIV infection.
The subject of assay [2] is PR8 virus. The assay is described as follows: microbe, parasite or virus in culture. The format is cell-based. The settings on record: unidentified influenza virus, PR8, MDCK; for inhibition at 3.125 µM: read-out: inhibition of virus replication / infection.
Assay [3] relates to influenza virus. The experiment in a line: Virus budding assay (influenza assay). The format is cell-based.
The test system of assay [4] is RBL-2H3 cells. The assay is described as follows: Degranulation assay (β-hexosaminidase release). Type of assay: cell-based, Rat.
Assay [5] can be described thus: Disrafter-Liposome Raftophile Assay (D-LRA). The following applies: 100 μM.
Assay [6] concerns vesicular stomatitis virus (VSV). The format is cell-based. The settings on record: HeLa cells.
The test system of assay [7] is Wild type SV40 viruses. Type of assay: cell-based, Simian Virus 40. The settings on record: 15CM, HeLa cells, compared to solvent control.
Setting [8] is: Rattus norvegicus, RBL-2H3, read-out: inhibition of release of β-hexosaminidase.

On to `CCCCCCCc1c(C)c(OC)c(OC)c2c1[nH]c1ccccc12` [Compound 22d], for which the inhibition at 10 µM in assay [1] turned out to be 21%.
`CCCCCCCCCCCCCCCCCCOc1cc2[nH]c3cc(OC)ccc3c2cc1C` [Compound 25d]: in assay [2], the inhibition at 3.125 µM was determined as 18.4%. The “inhibition in influenza virus budding assay” value in assay [3] is given as “inhibitory”.
Take `CCCCCCCc1c(C)c(O)cc2c1[nH]c1ccccc12` [Compound 23d]: the inhibition at 10 µM in assay [1] turned out to be 20%. Further, the inhibition at 100 µM in assay [4] (setting [8]) was found to be 15%. Also, the “disrafting activity (% disrafting)” value in assay [5] (GS-96 as marker) is recorded as -97.3%.
With `CCCCCCCC1(O)C(C)=C(OC)C(=O)c2c1[nH]c1ccccc21` (centres unmarked) [Compound 22c], in assay [1], the inhibition at 10 µM is 44%. In addition, the inhibition at 50 µM in assay [4] (setting [8]) worked out at 12%. Also, in assay [2], the inhibition at 3.125 µM came to 60.2%. Further, the “inhibition in influenza virus budding assay” value in assay [3] is “inhibitory”.
As for `CCCCCCCc1c(C)c(OC)cc2c1[nH]c1ccccc12` [Compound 24d], the inhibition at 100 µM in assay [2] (read-out: inhibition of virus infection) was 50.9%. For the same compound, the “inhibition in influenza virus budding assay” value in assay [3] is listed as “inhibitory”. For the same compound, the “disrafting activity (% disrafting)” value in assay [5] (perylene as marker) is given as -98.5%.
As for `Cc1c(C)c2c(c(C)c1O)CC[C@@](C)(CCC[C@H](C)CCC[C@H](C)CCCC(C)C)O2` [Alpha-(+)-tocopherol], the “activity in mast cell degranulation assay” value in assay [4] is reported as “moderately active”.
`CC(C)=CCc1ccc2[nH]c3c(c2c1)C(=O)C(=O)C(C)=C3C[C@@H](C)O` [Compound 21a]: in assay [4] (setting [8]), the inhibition at 100 µM came to 46%. The “disrafting activity (% disrafting)” value in assay [5] (perylene as marker) stood at 47.2%.
As for `CC1=C(Cc2ccc3[nH]c4c(c3c2)C(=O)C(=O)C(C)=C4CC(C)O)CCC(C)(C)C1` (centres unmarked) [Compound 22a], the inhibition at 10 µM in assay [1] was 15%. The “inhibitory effect on viral infection in VSV counterscreen” value in assay [6] was “no inhibitory effect on viral infection at all”. The inhibition at 3.125 µM in assay [2] came out at 24.2%. Besides, the “inhibition in influenza virus budding assay” value in assay [3] was “inhibitory”. Besides, the “inhibition of SV40 infection” value in assay [7] is recorded as 19%.
For the compound `CCCCCCCC1=C(C)C(=O)C(=O)c2c1[nH]c1ccccc21` [Compound 21b], the inhibition at 25 µM in assay [2] (read-out: inhibition of virus replication) amounted to 18.3%. Also, the “inhibition in influenza virus budding assay” value in assay [3] is reported as “inhibitory”.
